A compilation of properties of binary mixtures (doi:10.1016/j.jct.2016.03.014)

Assay: xn = mol fraction of the nth substance listed
Details: 101.3 kPa

CC[n+]1ccn(C)c1.O=S(=O)([O-])C(F)(F)F + CCCCCO
speed of sound [m/s]
Details | 298.15 K | 308.15 K | 318.15 K | 328.15 K
x2 = 0 | 1435.8 | 1413.5 | – | 1369.8
x2 = 0.0507 | 1431.8 | 1409.5 | – | –
x2 = 0.108 | 1423.1 | 1400.8 | 1378.7 | 1357.1
x2 = 0.1716 | – | 1387.5 | 1365.4 | –
x2 = 0.2365 | 1395.2 | – | 1350.1 | 1328.1
x2 = 0.3297 | 1373.9 | 1350.8 | 1328 | 1305.7
x2 = 0.4357 | 1348.1 | – | 1301.1 | 1278.1
x2 = 0.5702 | 1317.4 | 1292.8 | 1268.5 | 1244.5
x2 = 0.5941 | 1312 | 1287.2 | 1262.7 | 1238.5
x2 = 0.7208 | 1287.9 | 1261.6 | – | –
x2 = 0.8085 | – | 1249.1 | 1221.4 | 1194
x2 = 0.8515 | 1273.4 | 1244.7 | 1216.1 | 1187.7
x2 = 0.8998 | 1271.4 | 1241.4 | 1211.5 | 1181.9
x2 = 0.9479 | 1271.7 | 1240.2 | – | 1177.7

CCCCCO + CC[n+]1ccn(C)c1.O=S(=O)([O-])C(F)(F)F
x1 = 1
Details | speed of sound [m/s]
298.15 K | 1274.9
308.15 K | 1241.4
328.15 K | 1175.3
